Where a SMILES comes first, the peptide text is derived from it.
Legend:
[1] = test system: C. elegans strain CL4176 (human Aβ42, heat-inducible); assay: Paralysis assay in C. elegans CL4176; type: in vivo, Caenorhabditis elegans; conditions: synthetic AβC5-34 10 μM, AβC5-116 5 μM; temperature up-shift
Protocol: We followed standard procedures for C. elegans strains maintenance at 16° C. The following strains were used: CL2179: dvIs179 [myo-3p::GFP::3′UTR(long)+rol-6(su1006)] (available on the world wide web at: cgc.cbs.umn.edu/strain.php?id=26134); CL2331: dvIs37 [myo-3p::GFP::Aβ(3-42)+rol-6(su1006)] (available on the world wide web at: cgc.cbs.umn.edu/strain.php?id=26135); CL4176: smg-1(cc546) I; dvIs27 [myo-3::Aβ(1-42)-let 3′UTR(pAF29); pRF4 (rol-6(su1006)] (available on the world wide web at: cgc.cbs.umn.edu/strain.php?id=7663).
For treatments with synthetic cyclic peptides, nematodes were exposed to the indicated AβC5-34 and AβC5-116 concentrations per NGM plate. Stock solutions of the two chemically synthesized pure peptides were obtained after dissolution in DMSO and stored at −20° C. The appropriate amount of compound or DMSO (control cultures) was added onto an E. coli OP50 bacterial lawn. […] Treatment and control plates were handled, scored and assayed in parallel.
Synchronized CL4176 animals (150-300 animals per condition) were transferred to NGM plates containing synthetic AβC5-34, AβC5-116 or 0.26% DMSO at 16° C. for 48 h before transgene induction via temperature up-shift to 25° C. […] Treatment and control plates were handled, scored and assayed in parallel. […] Nematodes were scored as paralyzed upon failure to move their half end-body upon prodding. […]

Aβ42-GFP = biological target: T1, Aβ42-GFP (Homo sapiens, UniProt P05067); assay: High-throughput sequencing of pSICLOPPS vectors isolated after bacterial sorting for enhanced Aβ42-GFP fluorescence
T1 construct: a chimeric fusion of the human Aβ(1-42) peptide (Aβ42) with GFP; expressed in transfected cells; host or cells: E. coli BL21(DE3)
How it was run: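 Peptide inserts recovered from repeatedly sorted high-GFP clones were sequenced on Ion Torrent, excluding stop-codon-containing reads. Sorting used BL21(DE3) cells carrying pETAβ42-GFP plus the tetra-, penta- and hexapeptide pSICLOPPS library. Peptide production was induced with 0.002% L-arabinose and the reporter with 0.1 mM IPTG at OD600 ~0.5, at 37° C.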

T1 sequence (P05067 672-713 limits assumed): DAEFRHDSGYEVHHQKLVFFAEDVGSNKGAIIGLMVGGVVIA

SMILES	appearance of paralysis phenotype, CL4176 [1]	Reads/Total SASPT-like reads (%) (Aβ42-GFP; Table 2)	Reads/Total pentapeptide reads (%) (Aβ42-GFP; Table 2)	Reads/Total peptide reads (%) (Aβ42-GFP; Table 2)	Number of reads (Aβ42-GFP; Table 2, after second round of sorting)	Reads/Total TXXXR reads (%) (Aβ42-GFP; after the second round of bacterial sorting, relative to total TXXXR reads)	Reads/Total pentapeptide reads (%) (Aβ42-GFP; after the second round of bacterial sorting, relative to total pentapeptide reads)	Reads/Total peptide reads (%) (Aβ42-GFP; after the second round of bacterial sorting, relative to total peptide reads)	Number of reads (Aβ42-GFP; high-throughput sequencing of isolated pSICLOPPS-NuX1X2X3-X5 vectors after the second round of bacterial sorting for enhanced Aβ42-GFP fluorescence, selected cyclo-TXXXR pentapeptides)
C[C@@H]1NC(=O)[C@H](CO)NC(=O)[C@H]([C@@H](C)O)NC(=O)[C@@H]2CCCN2C(=O)[C@H](CO)NC1=O [AβC5-34, cyclo-SASPT] (cyclo(ASPTS))	significant delay	97.349	0.632	0.567	25673	–	–	–	–
C[C@@H]1NC(=O)[C@H]([C@@H](C)O)NC(=O)[C@H](CCCNC(=N)N)NC(=O)[C@H](CC(=O)O)NC(=O)[C@H](Cc2ccccc2)NC1=O [AβC5-116, cyclo-TAFDR] (cyclo(AFDRT))	significant delay	–	–	–	–	0.223	0.105	0.094	4,243
